Columns and labels:
[1] = test system: DU145 (mutant p53) xenograft tumors; assay: Xenograft model, DU145 tumors, PEITC diet; format: in vivo, BALB/C nu/nu transgenic mice
Procedure: Briefly, 30 BALB/C nu/nu transgenic mice (purchased from Charles River) were randomized into two groups, and fed with powder diet AlN93 (purchased from Research Diets, Inc.) with or without addition of 5 μM PEITC compound (purchased from Sigma-Aldrich). After two weeks of feeding, two xenograft tumors each carrying […] in a volume of 100 μL were established by injection into both flanks of a mouse. Mice were continuously fed with diets with or without PEITC for additional 8 weeks before sacrifice. Diet intake and tumor volume were measured twice every week. Tumors were harvested at the end of bioassay for immunohistochemistry and immunoblot studies. […] Immunohistochemistry assays were carried out to examine the apoptotic markers, such as TUNEL, and anti-proliferation marker Ki67 in tumors from the PEITC-treated vs. untreated mice. This study provides the first in vivo evidence that mutant p53 can be depleted in tumors of mice fed PEITC-containing diet and its depletion seems to correlate with growth inhibition in the mutant p53 tumors.

mutant p53 mRNA = assay: Reverse transcription PCR of p53 mRNA in H596 cells; format: cell-based, Human; settings: H596, 15 μM PEITC; 2, 4, and 6 h
Procedure: Total RNA was extracted from the cells using the RNeasy kit (Qiagen). Reverse transcription PCR was performed using SuperScript One-Step RT-PCR kit (Invitrogen) according to the manufacturer's instructions. Primers for p53 were 5′-[…]-3′ (sense) and 3′-[…]-5′ (antisense). Primers for β-actin were 5′-[…]-3′ (sense) and 3′-[…]-5′ (antisense). β-Actin was used as an internal standard for RNA normalization.

[2] = biological target: T1, wild-type p53 in A549, HCT116, MCF-7 and MCF-10A cells (Homo sapiens, UniProt P04637); assay: Immunoblot of wild-type p53 in cells with wild-type p53; format: cell-based
T1 construct: host or cells: A549, HCT116, MCF-7, MCF-10A
T1 sequence (P04637 whole entry): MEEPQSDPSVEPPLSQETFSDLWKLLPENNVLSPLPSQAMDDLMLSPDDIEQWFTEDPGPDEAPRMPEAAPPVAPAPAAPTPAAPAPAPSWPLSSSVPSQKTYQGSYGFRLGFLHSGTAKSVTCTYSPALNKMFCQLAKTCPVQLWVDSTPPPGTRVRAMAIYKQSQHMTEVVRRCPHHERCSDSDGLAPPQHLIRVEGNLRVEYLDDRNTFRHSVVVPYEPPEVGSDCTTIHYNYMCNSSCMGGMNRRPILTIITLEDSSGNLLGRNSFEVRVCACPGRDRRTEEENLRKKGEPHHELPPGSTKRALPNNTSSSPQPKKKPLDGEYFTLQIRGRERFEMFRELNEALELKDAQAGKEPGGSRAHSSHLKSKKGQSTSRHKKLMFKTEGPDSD
From the text: Human H596, A549, HCT116, MDA-MB-231, MDA-MB-468, MCF-7, DU145, MCF-10A, SW480, and SCC-4 cells were obtained from ATCC (Manassas, Va.). H1299-175H cells were kindly provided by Dr. Maria Laura Avantaggiati (Georgetown University). Cells were maintained in DMEM or RPMI-1640 medium supplemented with 10% FBS (Hyclone). DMSO, PEITC, BITC, SFN, AITC, NMPEA, and monochlorobimane were purchased from Sigma-Aldrich (St. Louis, Mo.). 2,2-Diphenylethyl ITC, 4-phenoxybenzyl ITC, 4-methoxybenzyl ITC, 4-chlorobenzyl ITC, Dα-methylbenzyl ITC, trityl ITC, and 3-phenylpropyl ITC were purchased from Trans World Chemicals (Rockville, Md.). Erucin and 4-phenylbutyl ITC were from LKT Laboratories, Inc. (St. Paul, Minn.). […] All the compounds are with purities ≧95% as determined by gas-liquid chromatography or HPLC. […]
Whole cell lysates were prepared in lysis buffer (20 mM HEPES, pH 7.4, 2 mM EGTA, 50 mM β-glycerol phosphate, 1% Triton X-100, 10% glycerol, 1 mM DTT, 1 mM PMSF, […], 1 mM Na3-VO4, and 5 mM NaF). […] Proteins were detected using enhanced chemiluminescence (ECL) reagents (GE Healthcare). […]

S=C=NCCc1ccccc1 [PEITC, phenethyl isothiocyanate]
p53 level in tumors detected by immunoblot ([1]; DU145 tumors, PEITC diet): moderate, yet significant, decrease
tumor volume ([1]; DU145 xenograft, diet with 5 μM PEITC vs diet without PEITC, 8 weeks): significantly decreased
mutant p53 mRNA levels (mutant p53 mRNA): remained unchanged
wild-type p53 expression ([2]; 15 or 20 μM PEITC for 2, 4, 8, and 24 h): did not decrease
level of wild type (WT) p53 protein ([2]; PEITC exposure, summary of previous experiments): no significant decrease
